Measurements as given in ChEMBL document CHEMBL1649250, “Susceptibility of urinary tract bacteria to fosfomycin” (2009).
Active and inactive are the calls of the source. The rule behind the calls is not given here.

How the values were obtained:
[1] = system: Escherichia coli; assay: Antimicrobial activity against Escherichia coli obtained from urine sample of patient assessed as percent susceptible isolates by disk diffusion method; type: functional
[2] = system: Enterobacter sp.; assay: Antimicrobial activity against Enterobacter sp. obtained from urine sample of patient assessed as percent susceptible isolates by disk diffusion method; type: functional
[3] = system: Klebsiella pneumoniae; assay: Antimicrobial activity against Klebsiella pneumoniae obtained from urine sample of patient assessed as percent susceptible isolates by disk diffusion method; type: functional
[4] = system: Proteus mirabilis; assay: Antimicrobial activity against Proteus mirabilis obtained from urine sample of patient assessed as percent susceptible isolates by disk diffusion method; type: functional
[5] = system: Salmonella sp.; assay: Antimicrobial activity against Salmonella sp. obtained from urine sample of patient assessed as percent susceptible isolates by disk diffusion method; type: functional
[6] = system: Serratia marcescens; assay: Antimicrobial activity against Serratia marcescens obtained from urine sample of patient assessed as percent susceptible isolates by disk diffusion method; type: functional
[7] = system: Stenotrophomonas maltophilia; assay: Antimicrobial activity against Stenotrophomonas maltophilia obtained from urine sample of patient assessed as percent susceptible isolates by disk diffusion method; type: functional
[8] = system: Staphylococcus epidermidis; assay: Antimicrobial activity against Staphylococcus epidermidis obtained from urine sample of patient assessed as percent susceptible isolates by disk diffusion method; type: functional, organism-based
[9] = system: Acinetobacter baumannii; assay: Antimicrobial activity against Acinetobacter baumannii obtained from urine sample of patient assessed as percent susceptible isolates by disk diffusion method; type: functional
[10] = system: Pseudomonas aeruginosa; assay: Antimicrobial activity against Pseudomonas aeruginosa obtained from urine sample of patient assessed as percent susceptible isolates by disk diffusion method; type: functional
[11] = system: Staphylococcus saprophyticus; assay: Antimicrobial activity against Staphylococcus saprophyticus obtained from urine sample of patient assessed as percent susceptible isolates by disk diffusion method; type: functional
[12] = system: Enterococcus faecalis; assay: Antimicrobial activity against Enterococcus faecalis obtained from urine sample of patient assessed as percent susceptible isolates by disk diffusion method; type: functional
[13] = system: Enterococcus faecium; assay: Antimicrobial activity against Enterococcus faecium obtained from urine sample of patient assessed as percent susceptible isolates by disk diffusion method; type: functional
[14] = system: Streptococcus agalactiae; assay: Antimicrobial activity against Streptococcus agalactiae obtained from urine sample of patient assessed as percent susceptible isolates by disk diffusion method; type: functional
[15] = system: Klebsiella pneumoniae; assay: Antimicrobial activity against colistin-nonsusceptible Klebsiella pneumoniae assessed as percent susceptible isolates by disk diffusion method; type: functional
[16] = system: Klebsiella pneumoniae; assay: Antimicrobial activity against carbapenemase-nonsusceptible Klebsiella pneumoniae assessed as percent susceptible isolates by disk diffusion method; type: functional
[17] = system: Klebsiella pneumoniae; assay: Antimicrobial activity against carbapenemase producing Klebsiella pneumoniae assessed as percent susceptible isolates by disk diffusion method; type: functional
[18] = system: Pseudomonas aeruginosa; assay: Antimicrobial activity against carbapenemase-nonsusceptible Pseudomonas aeruginosa assessed as percent susceptible isolates by disk diffusion method; type: functional
[19] = system: Escherichia coli; assay: Antimicrobial activity against cefotaxime-, ceftriaxone-, cefepime-, ceftazidime-, and aztreonam-nonsusceptible Escherichia coli assessed as percent susceptible isolates by disk diffusion method; type: functional
[20] = system: Klebsiella pneumoniae; assay: Antimicrobial activity against cefotaxime-, ceftriaxone-, cefepime-, ceftazidime-, and aztreonam-nonsusceptible Klebsiella pneumoniae assessed as percent susceptible isolates by disk diffusion method; type: functional
[21] = system: Enterobacter sp.; assay: Antimicrobial activity against cefotaxime-, ceftriaxone-, cefepime-, ceftazidime-, and aztreonam-nonsusceptible Enterobacter sp. assessed as percent susceptible isolates by disk diffusion method; type: functional
[22] = system: Pseudomonas aeruginosa; assay: Antimicrobial activity against cefotaxime-, ceftriaxone-, cefepime-, ceftazidime-, and aztreonam-nonsusceptible Pseudomonas aeruginosa assessed as percent susceptible isolates by disk diffusion method; type: functional
[23] = system: Escherichia coli; assay: Antimicrobial activity against […] producing Escherichia coli assessed as percent susceptible isolates by disk diffusion method; type: functional
[24] = system: Klebsiella pneumoniae; assay: Antimicrobial activity against […] producing Klebsiella pneumoniae assessed as percent susceptible isolates by disk diffusion method; type: functional
[25] = system: Klebsiella oxytoca; assay: Antimicrobial activity against […] producing Klebsiella oxytoca assessed as percent susceptible isolates by disk diffusion method; type: functional
[26] = system: Staphylococcus aureus; assay: Antimicrobial activity against Staphylococcus aureus obtained from urine sample of patient assessed as percent susceptible isolates by disk diffusion method; type: functional

Question: `C[C@@H]1O[C@@H]1P(=O)(O)O` [FOSFOMYCIN] was tested. Which Activity [1] did it give?
Answer: 100%

Question: And the Activity [2]?
Answer: 75%

Question: And the Activity [3]?
Answer: 82.3%

Question: And the Activity [4]?
Answer: 96.7%

Question: What about the Activity [5] of the same compound?
Answer: 66.6%

Question: And the Activity [6]?
Answer: 66.6%

Question: And the Activity [7]?
Answer: 66.6%

Question: What about the Activity [8] of the same compound?
Answer: Active

Question: And the Activity [9]?
Answer: 9%

Question: And the Activity [10]?
Answer: 85%

Question: And the Activity [11]?
Answer: 100%

Question: What about the Activity [12] of the same compound?
Answer: 91.8%

Question: And the Activity [13]?
Answer: 0%

Question: And the Activity [14]?
Answer: 50%

Question: And the Activity [15]?
Answer: 58.3%

Question: And the Activity [16]?
Answer: 60%

Question: What about the Activity [17] of the same compound?
Answer: 60%

Question: What about the Activity [18] of the same compound?
Answer: 88.8%

Question: And the Activity [19]?
Answer: 100%

Question: What about the Activity [20] of the same compound?
Answer: 75%

Question: And the Activity [21]?
Answer: 100%

Question: And the Activity [22]?
Answer: 17%

Question: What about the Activity [23] of the same compound?
Answer: 100%

Question: And the Activity [24]?
Answer: 100%

Question: What about the Activity [25] of the same compound?
Answer: 0%

Question: And the Activity [26]?
Answer: 100%
